Test results reported in paper PMC6240685, “Strong Inhibitory Effect, Low Cytotoxicity and High Plasma Stability of Steroidal Inhibitors of N-Methyl-D-Aspartate Receptors With C-3 Amide Structural Motif” (Frontiers in Pharmacology, 2018).
Structures can show the parent of a compound that is named as a salt. Where two headings read alike, the source gives them in different places.

Experiments:
[1] = system: HepG2 cells; test: ROS induction (CM-H2DCFDA); format: cell-based
Description: (§1) (A) Hepatotoxicity provoked by compound 4 was assessed after 72 h incubation of HepG2 cells in low glucose medium (5 mM) in the presence of compound 4 (0.25–100 μM). (B) Mitochondrial toxicity was determined after 24 h incubation of HepG2 cells in either high glucose medium (25 mM) or galactose medium (10 mM) in the presence of compound 4 (2.5–150 μM). Cell viabilities were recorded in triplicates in three independent experiments and expressed as percentage of vehicle control ± SD and IC50 values were determined by GraphPad Prism software using following equation: Y = Bottom + (Top–Bottom)/(1 + 10ˆ((LogIC50-X)^∗HillSlope)), where IC50 is the concentration of compound 4 that inhibits cell viability half way between Bottom and Top plateaus, X is compound 4 concentration and HillSlope describes the steepness of the family of curves. […] (C) Concentration-dependent effect on ROS level. HepG2 cells were treated with compound 4 (0.25–100 μM) for 72 h, and then the intracellular level of total ROS in relative fluorescence units (RFU) was detected. The data are presented as the mean ± SD for at least three independent experiments and each experiment was carried out in triplicate. Final concentration of DMSO in samples was 1%. […] Single asterisks (^∗) indicate a significant difference (P < 0.05) compared to 1% DMSO control (one-way ANOVA with Dunnett’s post-test).
The effect of neurosteroids on oxidative stress was determined using general oxidative stress indicator CM-H2DCFDA (Thermo Fisher Scientific, Waltham, MA, United States) according to the manufacturer’s instructions. Briefly HepG2 cells were seeded in a 96-well plate at a density of 13,500 cells per well. After 24 h, the tested neurosteroids were added to the culture media and incubated for 72 h. Subsequently, cells were washed with HBSS, treated with 100 μL of 1 μM CM-H2DCF-DA solution in HBSS and incubated for 1 h in the dark at 37°C. Finally, cells were washed three times with HBSS and the fluorescence was measured using 495 excitation and 527 emission in fluorescence microplate reader (Cytation 3, Winooski, VT, United States). IC50 index values were determined by GraphPad Prism version 5.00 for Windows (GraphPad Software, La Jolla, CA, United States).

[2] = Plasma stability, rat plasma; format: in vitro ADME
[3] = molecular target: T1, GluN1/GluN2B receptors (Rattus norvegicus, UniProt P35439+Q00960); test: Patch-clamp inhibition of glutamate responses of GluN1/GluN2B receptors in transfected HEK293 cells; format: cell-based
T1 construct: expressed in transfected cells; host or cells: HEK293

[4] = system: HepG2 cells; test: Hepatotoxicity, XTT viability after 72 h; format: cell-based; conditions: Homo sapiens, read-out: Hepatotoxicity IC50, 5.5 mM glucose
Description: Then, the cell viability (XTT assay) and reactive oxygen species (ROS) induction were evaluated.
as §1
(§2) HepG2 cells (ATCC®, United Kingdom) were grown in complete Minimal Essential Medium (EMEM) (5.5 mM glucose) medium, supplemented with 10% (v/v) fetal calf serum, 200 μg/mL of streptomycin, 200 U/mL of penicillin G and 4 mM glutamine. They were cultured under a humidified atmosphere containing 5% CO2 at 37°C.
(§3) The cytotoxicity of the tested compounds was assessed with use of XTT cell proliferation kit II (Roche Diagnostics GmbH, Mannheim, Germany) according to the manufacturer’s instructions. Briefly HepG2 cells were seeded in a 96-well plate at a density of 22,000 cells per well. After 24 h, the tested neurosteroids in a concentration range from 0.5 to 200 μM were added to the culture media and incubated for 72 h before the XTT dye was added. Mitochondrial toxicity was assessed in HepG2 cells using glucose and galactose conditioned media and XTT assay as a read out for cell viability. In brief, cells were seeded onto 96 well, clear bottom tissue culture plates at a density of 22,000 cells/well and left overnight to attach. Six hours prior to the neurosteroids treatment the media was replaced with 100 μL DMEM media containing either glucose (25 mM glucose; 1 mM pyruvate; 2 mM glutamine, 10% FBS) or galactose (10 mM galactose, 1 mM pyruvate, 6 mM glutamine, 10% FBS). After that, the tested neurosteroids in a concentration range from 0.5 to 200 μM were added in the fresh appropriate assay medium (glucose or galactose) and incubated for 24 h before the XTT dye was added. The XTT absorbance was recorded at 495 nm after 1 h incubation with the dye. Compounds were dissolved in DMSO to produce the stock solutions at the concentration of 10 mM, with exception of PAG, 1, 6 (5 mM), and 11 (2.5 mM). Results were expressed as percentages of change in viability compared to appropriate DMSO control. IC50 values were determined by GraphPad Prism version 5.00 for Windows (GraphPad Software, La Jolla, CA, United States). All experiments were done in triplicates in three independent experiments to check the reproducibility.

[5] = system: HepG2 cells; test: Mitotoxicity, XTT viability in glucose vs galactose medium; conditions: for IC50: Homo sapiens, HepG2, 24 h; for Glu/Gal index (fold change): 24 h, HepG2, index higher than 3 indicates potential mitochondrial toxicity
Description: as §1, §2, §3

[6] = Plasma stability, human plasma; format: in vitro ADME
Description: Then, 37.8 μL of stock solution was added to 1400 μL of human plasma, maintained at 37°C. Aliquots (50 μL) withdrawn at 0, 1, 4, 8, and 24 h were analyzed by HPLC. […] The supernatant was transferred to an autosampler vial and 1 μL was injected onto LC-MS system. The samples were analyzed with an Agilent 1260 HPLC (Agilent Technologies) coupled to ESI-TOF Agilent 6530 (Agilent Technologies) with Agilent Jet Stream Technology. Samples were separated on a Waters ACQUITY UPLC CSH Phenyl-Hexyl (100 × 2.1, 130 Å, 1.7 μm) at a flow rate 0.3 ml/min. […] The mass spectrometry instrument was operated in a negative ion mode with a voltage of +3.00 kV applied to the capillary. The temperature, the flow rate of the nitrogen drying gas, the pressure of the nitrogen nebulizing gas, and the flow rate of the sheath gas were set at 325°C, 10 l/min, 40 psi, 390°C, and 11 l/min, respectively. Results are represented as a percentage of a compound remaining in spiked human plasma.

[7] = design: method as in Rambousek et al., 2011; conditions: ref Rambousek et al., 2011, cited from earlier work
[8] = design: method as in Holubova et al., 2014; conditions: ref Holubova et al., 2014; cited from earlier work
[9] = design: method as in Rambousek et al., 2011; conditions: after bilateral NMDA-induced lesions to the hippocampus; ref Rambousek et al., 2011; cited from earlier work
[10] = design: method as in Kleteckova et al., 2014; conditions: induced by endothelin-1, immature rats; ref Kleteckova et al., 2014; cited from earlier work
[11] = molecular target: T2, GluN1/GluN2A receptors (Rattus norvegicus, UniProt P35439+Q00959); design: method as in Petrovic et al., 2005; conditions: ref Petrovic et al., 2005; cited from earlier work
T2 construct: expressed in transfected cells; host or cells: HEK293

[12] = molecular target: T3, GluN1/GluN2C receptors (Rattus norvegicus, UniProt P35439+Q00961); design: method as in Petrovic et al., 2005; conditions: ref Petrovic et al., 2005; cited from earlier work
T3 construct: expressed in transfected cells; host or cells: HEK293

[13] = molecular target: T1, GluN1/GluN2B receptors; design: method as in Petrovic et al., 2005; conditions: ref Petrovic et al., 2005; cited from earlier work
[14] = molecular target: T4, GluN1/GluN2D receptors (Rattus norvegicus, UniProt P35439+Q62645); design: method as in Petrovic et al., 2005; conditions: ref Petrovic et al., 2005; cited from earlier work
T4 construct: expressed in transfected cells; host or cells: HEK293

[15] = Homo sapiens, HepG2, 72 h; read-out: ROS induction EC50
[16] = as repeated in Table 2, read-out: IC50
[17] = current responses to glutamate, HEK293, IC50 from single steroid dose, Hill coefficient fixed at 1.2, read-out: IC50 ± SD
[18] = read-out: Mitotoxicity IC50, 10 mM galactose
[19] = read-out: Mitotoxicity IC50, 25 mM glucose
[20] = Homo sapiens, HepG2, 72 h, read-out: ROS induction EC50

T1 sequence (Q00960 27-1482, other chains not shown): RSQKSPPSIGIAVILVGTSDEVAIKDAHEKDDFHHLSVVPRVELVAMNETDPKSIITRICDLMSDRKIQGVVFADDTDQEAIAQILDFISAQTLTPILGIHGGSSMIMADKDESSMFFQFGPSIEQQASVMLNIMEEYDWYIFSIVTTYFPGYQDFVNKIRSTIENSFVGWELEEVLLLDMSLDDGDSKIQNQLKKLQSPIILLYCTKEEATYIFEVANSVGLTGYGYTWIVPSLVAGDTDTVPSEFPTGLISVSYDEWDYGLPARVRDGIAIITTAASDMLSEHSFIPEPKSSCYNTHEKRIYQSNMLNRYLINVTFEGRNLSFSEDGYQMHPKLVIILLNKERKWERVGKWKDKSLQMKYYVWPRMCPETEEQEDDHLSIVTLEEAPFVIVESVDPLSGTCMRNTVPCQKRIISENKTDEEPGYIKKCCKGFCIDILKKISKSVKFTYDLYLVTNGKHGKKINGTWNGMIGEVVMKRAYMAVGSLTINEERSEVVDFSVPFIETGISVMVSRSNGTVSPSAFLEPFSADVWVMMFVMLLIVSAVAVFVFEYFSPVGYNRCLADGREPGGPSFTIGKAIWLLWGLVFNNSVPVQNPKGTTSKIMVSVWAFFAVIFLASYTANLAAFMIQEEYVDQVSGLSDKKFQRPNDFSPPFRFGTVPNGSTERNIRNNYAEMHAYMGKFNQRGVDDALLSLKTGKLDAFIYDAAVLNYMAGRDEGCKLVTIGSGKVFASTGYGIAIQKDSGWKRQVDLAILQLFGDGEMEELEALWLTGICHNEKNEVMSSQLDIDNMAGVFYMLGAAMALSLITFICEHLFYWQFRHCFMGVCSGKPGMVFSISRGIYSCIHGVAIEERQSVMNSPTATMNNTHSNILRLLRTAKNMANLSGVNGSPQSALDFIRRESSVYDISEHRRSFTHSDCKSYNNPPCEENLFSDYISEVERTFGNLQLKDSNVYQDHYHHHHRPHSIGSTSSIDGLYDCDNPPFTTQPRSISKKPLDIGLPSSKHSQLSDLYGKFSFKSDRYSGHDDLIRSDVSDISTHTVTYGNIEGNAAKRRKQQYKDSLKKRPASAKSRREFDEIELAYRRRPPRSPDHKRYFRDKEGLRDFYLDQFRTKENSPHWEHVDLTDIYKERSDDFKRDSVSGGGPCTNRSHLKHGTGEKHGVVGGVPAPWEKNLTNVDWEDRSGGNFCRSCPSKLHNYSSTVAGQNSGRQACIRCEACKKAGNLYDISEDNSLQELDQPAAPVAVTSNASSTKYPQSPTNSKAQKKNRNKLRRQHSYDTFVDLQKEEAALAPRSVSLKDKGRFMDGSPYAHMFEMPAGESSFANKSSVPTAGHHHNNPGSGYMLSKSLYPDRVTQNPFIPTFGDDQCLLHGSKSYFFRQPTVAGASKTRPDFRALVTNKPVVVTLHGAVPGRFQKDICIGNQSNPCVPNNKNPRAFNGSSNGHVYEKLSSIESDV
T2 sequence (Q00959 23-1464, other chains not shown): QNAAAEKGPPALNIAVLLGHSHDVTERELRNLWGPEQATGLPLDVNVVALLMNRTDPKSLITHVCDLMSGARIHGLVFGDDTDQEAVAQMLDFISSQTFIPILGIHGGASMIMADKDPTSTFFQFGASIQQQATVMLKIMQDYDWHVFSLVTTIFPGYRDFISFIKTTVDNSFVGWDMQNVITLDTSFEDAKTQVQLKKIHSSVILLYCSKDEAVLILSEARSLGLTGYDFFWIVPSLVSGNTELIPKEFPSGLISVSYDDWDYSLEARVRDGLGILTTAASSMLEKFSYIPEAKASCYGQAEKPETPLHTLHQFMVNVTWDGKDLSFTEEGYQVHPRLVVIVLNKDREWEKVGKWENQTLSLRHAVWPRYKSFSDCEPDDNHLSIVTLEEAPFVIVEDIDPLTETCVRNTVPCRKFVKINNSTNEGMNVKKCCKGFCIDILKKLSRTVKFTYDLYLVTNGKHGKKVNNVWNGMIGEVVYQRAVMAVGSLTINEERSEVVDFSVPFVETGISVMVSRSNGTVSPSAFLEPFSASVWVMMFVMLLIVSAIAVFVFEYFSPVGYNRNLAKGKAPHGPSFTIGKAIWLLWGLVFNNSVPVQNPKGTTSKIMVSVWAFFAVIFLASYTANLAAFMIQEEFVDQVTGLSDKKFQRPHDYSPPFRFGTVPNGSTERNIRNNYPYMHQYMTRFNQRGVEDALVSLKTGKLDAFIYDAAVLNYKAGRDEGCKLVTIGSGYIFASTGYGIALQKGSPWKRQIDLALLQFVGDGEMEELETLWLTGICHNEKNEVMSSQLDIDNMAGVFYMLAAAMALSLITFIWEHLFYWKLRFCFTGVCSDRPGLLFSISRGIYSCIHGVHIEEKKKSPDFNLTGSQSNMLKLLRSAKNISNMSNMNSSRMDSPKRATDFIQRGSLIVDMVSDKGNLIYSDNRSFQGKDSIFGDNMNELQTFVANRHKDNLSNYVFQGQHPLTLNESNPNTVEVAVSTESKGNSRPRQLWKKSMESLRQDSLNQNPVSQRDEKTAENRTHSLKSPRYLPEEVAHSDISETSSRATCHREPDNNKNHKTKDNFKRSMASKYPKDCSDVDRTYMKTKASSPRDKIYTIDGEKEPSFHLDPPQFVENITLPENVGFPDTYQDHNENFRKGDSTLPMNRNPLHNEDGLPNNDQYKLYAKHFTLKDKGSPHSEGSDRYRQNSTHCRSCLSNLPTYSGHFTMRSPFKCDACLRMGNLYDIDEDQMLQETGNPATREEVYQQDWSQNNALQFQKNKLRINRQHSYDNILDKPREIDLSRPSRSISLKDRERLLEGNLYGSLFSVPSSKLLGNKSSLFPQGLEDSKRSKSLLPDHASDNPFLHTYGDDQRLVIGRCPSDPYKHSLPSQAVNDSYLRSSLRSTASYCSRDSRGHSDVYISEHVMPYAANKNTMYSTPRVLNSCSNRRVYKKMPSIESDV
T4 sequence (Q62645 28-1323, other chains not shown): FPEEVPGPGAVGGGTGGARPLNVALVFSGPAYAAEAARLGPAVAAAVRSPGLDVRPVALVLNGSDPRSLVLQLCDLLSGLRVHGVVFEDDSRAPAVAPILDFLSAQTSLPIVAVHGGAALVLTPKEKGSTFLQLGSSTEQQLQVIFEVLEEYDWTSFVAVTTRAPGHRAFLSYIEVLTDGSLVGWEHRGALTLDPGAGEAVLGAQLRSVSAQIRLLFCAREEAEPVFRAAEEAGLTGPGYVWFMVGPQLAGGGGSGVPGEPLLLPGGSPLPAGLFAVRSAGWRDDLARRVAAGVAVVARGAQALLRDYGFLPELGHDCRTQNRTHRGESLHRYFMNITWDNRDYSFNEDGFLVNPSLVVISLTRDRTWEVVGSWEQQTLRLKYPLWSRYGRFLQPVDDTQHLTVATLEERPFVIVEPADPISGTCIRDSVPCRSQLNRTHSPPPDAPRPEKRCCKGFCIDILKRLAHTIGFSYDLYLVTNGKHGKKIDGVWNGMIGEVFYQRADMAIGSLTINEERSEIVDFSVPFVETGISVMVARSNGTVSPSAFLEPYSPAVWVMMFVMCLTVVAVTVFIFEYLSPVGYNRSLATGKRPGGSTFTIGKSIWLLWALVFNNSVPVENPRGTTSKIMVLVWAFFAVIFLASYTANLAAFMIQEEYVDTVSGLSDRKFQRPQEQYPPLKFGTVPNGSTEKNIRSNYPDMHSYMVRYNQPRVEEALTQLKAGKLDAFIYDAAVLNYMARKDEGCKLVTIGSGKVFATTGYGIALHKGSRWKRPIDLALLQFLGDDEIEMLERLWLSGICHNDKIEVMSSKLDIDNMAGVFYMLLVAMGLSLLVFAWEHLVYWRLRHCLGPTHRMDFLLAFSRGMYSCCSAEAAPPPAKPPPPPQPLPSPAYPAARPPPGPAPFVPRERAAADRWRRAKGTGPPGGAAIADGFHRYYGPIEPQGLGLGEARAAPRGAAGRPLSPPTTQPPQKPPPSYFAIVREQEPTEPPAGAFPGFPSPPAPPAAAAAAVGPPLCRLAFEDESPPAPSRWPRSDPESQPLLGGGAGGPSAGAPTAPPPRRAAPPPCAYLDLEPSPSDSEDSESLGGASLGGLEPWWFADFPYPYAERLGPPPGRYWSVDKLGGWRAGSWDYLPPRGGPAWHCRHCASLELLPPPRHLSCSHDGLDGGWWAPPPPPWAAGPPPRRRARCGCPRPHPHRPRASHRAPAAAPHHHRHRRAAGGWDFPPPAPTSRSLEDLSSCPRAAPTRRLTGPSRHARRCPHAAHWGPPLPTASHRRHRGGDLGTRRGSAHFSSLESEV

Compound	EC50 [1, 15] [µM]	remaining at 8 h, 42.1 μg/mL ([2]; rat, plasma) [%]	ΔGexp [3] [kcal/mol]	IC50 [3, 16] [µM]	IC50 [3, 17] [µM]	IC50 ([4]; 72 h, HepG2, 5.5 mM glucose) [µM]	melting point [°C]	IC50 [5, 18] [µM]	IC50 [5, 19] [µM]	remaining at 8 h, 42.1 μg/mL ([6]; human, plasma) [%]	Glu/Gal index (fold change) [5]	EC50 [1, 20] [µM]	IC50 [3] [µM]	IC50 ([4]; HepG2, 72 h) [µM]	also measured
C[C@@]12CCC[C@H]1[C@@H]1CC[C@@H]3C[C@H](NC(=O)C[C@H](N)C(=O)O)CC[C@]3(C)[C@H]1CC2 [Compound 10, (S)-2-amino-4-(((3R,5R,8S,9S,10S,13S,14S)-10,13-dimethylhexadecahydro-1H-cyclopenta[a]phenanthren-3-yl)amino)-4-oxobutanoic acid]	> 200	100	-7.27	4.9	4.9 ± 1.7	> 200	188 to 190	> 200	> 200	100					
CC(C)(C)OC(=O)N[C@H](CCC(=O)N[C@@H]1CC[C@@]2(C)[C@H](CC[C@H]3[C@@H]4CCC[C@@]4(C)CC[C@@H]32)C1)C(=O)O [Compound 11, (R)-2-((tert-butoxycarbonyl)amino)-5-(((3R,5R,8S,9S,10S,13S,14S)-10,13-dimethylhexadecahydro-1H-cyclopenta[a]phenanthren-3-yl)amino)-5-oxopentanoic acid]	103 ± 8	100	-7.49	3.4	3.4 ± 0.1	91 ± 5	125 to 128	193 ± 17	193 ± 13	100	1				
CC(=O)C1CCC2C3CCC4CC(OC(=O)C(N)CCC(=O)O)CCC4(C)C3CCC12C (centres unmarked) [PAG, pregnanolone glutamate, reference compound]								58 ± 7	115 ± 13		1.97	80 ± 11	51.7 ± 8.6	62 ± 9	excitotoxic damage of brain tissue and subsequent behavioral impairment ([7]; rats): reduced excitotoxic damage of brain tissue and subsequent behavioral impairment; psychotomimetic symptoms (hyperlocomotion, sensorimotor gating deficit) [7]: does not induce psychotomimetic symptoms; behaviour in elevated plus maze (EPM) and forced swimming models [8]: anxiolytic-like and antidepressant-like properties; remaining at 8 h, 42.1 μg/mL ([2]; rat plasma, 8 h, 37°C, read-out: Plasma stability (% remaining after 8 h), Rat): 82%; behavioral performance in active allothetic place avoidance tasks (AAPA) [9]: improved behavioral performance; neuronal damage in the dentate gyrus and subiculum [9]: significantly ameliorated neuronal damage; effect in focal cerebral ischemia model [10]: neuroprotective effect; remaining at 8 h, 42.1 μg/mL ([6]; human plasma, 8 h, 37°C, read-out: Plasma stability (% remaining after 8 h), Human): 94%
CC(=O)[C@H]1CC[C@H]2[C@@H]3CC[C@@H]4C[C@H](OS(=O)(=O)O)CC[C@]4(C)[C@H]3CC[C@]12C [PAS, 20-oxo-5β-pregnan-3α-yl sulfate, reference compound]								> 200	> 200			> 200	24.6 ± 5.3	> 200	IC50 [11]: 50 µM; IC50 [12]: 25.6 µM; IC50 [13]: 44.4 µM; IC50 [14]: 30.1 µM
